Tests used:
[1] = system: subarachnoid hemorrhage in rats; assay: Rat subarachnoid hemorrhage (SAH) model by intravascular puncture, Sugawara bleeding score; type: in vivo; parameters: dose or concentration left out as unconfirmed; conditions: tail vein injection, 2 administrations 4 h apart, scored 24 h after first administration (Sugawara)
Procedure: Rat subarachnoid hemorrhage (SAH) model was built by intravascular puncture. After being weighed, the rats were anesthetized with sodium pentobarbital (50 mg/kg) or chloral hydrate (300 mg/kg) by intraperitoneal injection, then fixed on their back and maintained the animal's body temperature at about 37° C. The rats' neck skin was shaved for surgery, a median incision was made on the neck, and muscle and fascia were separated along the inner edge of stemocleidomastoid muscle to expose the main and bifurcation of right common carotid artery, and expose the external and internal carotid arteries.
The bifurcation of internal carotid artery was gently clamped with ophthalmic forceps, the bifurcation of the internal carotid artery and the external carotid artery was pierced with a 6-gauge syringe needle, the ophthalmic forceps holding the bifurcation of internal carotid artery was slightly loosen, and No. 3 fishing thread was used to perform a puncture at the bleeding point, the ophthalmic forceps on the internal carotid artery was loosen, and the fishing thread was inserted into skull. […] After staying for 15 seconds, the thread for puncture was completely removed, and the skin was sutured after compression to stop the bleeding. 1.6 million units of penicillin potassium (400,000 units/ml, 0.2 ml/rat) was intramuscularly injected to avoid wound infection. For the sham operation group, the thread for puncture was removed when resistance was felt without piercing the bifurcation of the anterior cerebral artery and the middle cerebral artery, while the remaining operation steps were the same as the model group. After the operation, the rats were transferred to a thermal insulation blanket, then transferred to a squirrel cage when they were basically awake, and kept normally.
In this test experimental, 32 groups were set, i.e., Groups 1 to 32, in which Group 1 was a normal control group (healthy rats), Group 2 was a sham operation control group (not modeling by puncture), Group 3 was a model control group (modeling by puncture, administrated with normal saline), Group 4 was a positive control group (modeling by puncture, administrated with fasudil hydrochloride injection), and Groups 5 to 32 were test groups of the compounds of the present application (modeling by puncture, respectively administrated with the compounds of the present application); and there were 8 animals (purchased from SPF (Beijing) Biotechnology Co., Ltd., the certificate number was SYXK (Beijing) 2016-0002) in each group, half of them were female and half of them were male. The animals were subjected to fasting for 12 to 18 hours without prohibition of drinking water before modeling. […] The rats were euthanized 24 h after the first administration, and the brains were taken. According to Sugawara's method (Reference: Sugawara T, Ayer R, Jadhav V, et al. A new grading system evaluating bleeding scale in filament perforation subarachnoid hemorrhage rat model. J Neurosci Methods. 2008, 167(2):327-34), the subarachnoid hemorrhage amounts were scored, and the scoring results were as follows: […]

endothelin (ET-1) = assay: Expression of endothelin (ET-1) in EA.Hy926 endothelial cells, detection kit; type: cell-based, human; conditions: EA.Hy926 cell supernatant, 48 h
Procedure: (§1) Commercially available cytokine kits were used to detect the effects of the compounds of the present application on vascular endothelium-derived contracting factor endothelin, vascular endothelium-derived relaxing factor endothelial nitric oxide synthase, nitric oxide, and prostacyclin factor. The detection was performed according to the kit instructions. When testing the effect of the compound of the present application on cytokines, a normal control group, a fasudil hydrochloride group, and high-, medium- and low-dose groups of the compounds of the present application were set up for testing. The fasudil hydrochloride used in this test example was purchased from Beijing Sihuan Pharmaceutical Co., Ltd., with the SFDA approval number of H20173349. The EA.Hy926 cells used in this test example were purchased from Suzhou Beina Chuanglian Biotechnology Co., Ltd.
EA.Hy926 cells were taken and inoculated in a 96-well plate at 5×10^4 cells/mL, 100 μL per well, and cultured adherently for 24 hours, then the test compound prepared in DMEM medium was added, and an equal volume of DMEM medium was added in the normal control group, then the cells were cultured at 37° C. for 48 hours, and then the cell supernatant was taken and placed in an EP tube, and centrifuged at 3000 r/min, 4° C. for 15 min. The resulting cell supernatant was transferred to a new EP tube, diluted twice with culture medium, and detected according to the instruction of the human endothelin detection kit (purchased from Wuhan Boster Biological Engineering Co., Ltd., batch number 59113731009), and the detection results were shown in Table 2.

prostacyclin (PGI2) = assay: Expression of prostacyclin (PGI2) in EA.Hy926 endothelial cells, ELISA kit; type: cell-based; conditions: EA.Hy926 cell supernatant, 24 h
Procedure: as §1
EA.Hy926 cells were taken and inoculated in a 96-well plate at 5×10^4 cells/mL, 100 μL per well, and cultured adherently for 24 hours, then the test compound prepared in DMEM medium was added, and an equal volume of DMEM medium was added in the normal control group, then the cells were cultured at 37° C. for 24 hours, and then the cell supernatant was taken and placed in an EP tube, and centrifuged for 15 min at 3000 r/min and 15° C. The resulting supernatant was transferred to a new EP tube, and then the detection was performed according to the instruction of ELISA kit (purchased from Wuhan Elabscience Biotechnology Co., Ltd., Cat. No. E-EL-0022c), and the detection results were shown in Table 3.

[2] = system: endothelial nitric oxide synthase (eNOS); assay: Endothelial nitric oxide synthase (eNOS) in EA.Hy926 endothelial cells, detection kit; type: cell-based; conditions: EA.Hy926 cell supernatant, 24 h
Procedure: as §1
Detection conditions: EA.Hy926 cells were inoculated at 1×10^5 […] in a 96-well plate, 100 μL per well, and cultured adherently for 24 hours, then the test compound prepared with DMEM medium was added, the normal control group was added with an equal volume of DMEM medium, then the cells were cultured for 24 hours at 37° C., and then the cell supernatant was taken and placed in an EP tube, and centrifuged at 3000 r/min and 4° C. for 15 minutes, the resulting supernatant was transferred to a new EP tube, diluted 3 times, and detected according to the instruction of eNOs detection kit (purchased from Wuhan Elabscience Biotechnology Co., Ltd., Cat. No. AK0017OCT12013), and the detection results were shown in Table 4.

nitric oxide (NO) = assay: Synthesis and secretion of nitric oxide (NO) in EA.Hy926 endothelial cells, NO detection kit; type: cell-based; conditions: EA.Hy926 cell supernatant, 24 h
Procedure: as §1
EA.Hy926 cells were inoculated in a 24-well plate at 5×10^5 cells/mL, 400 μL per well, and cultured adherently for 18 hours, then the supernatant was discarded, the test compound prepared in DMEM medium was added, and an equal volume of DMEM medium was added in the normal control group, then the cells was cultured for 24 h in incubator, and then the cell supernatant was collected and detected according to the instructions of NO detection kit (purchased from Beyotime Institute of Biotechnology, Cat. No. 062617171017), and the detection results were shown in Table 5.

C[C@@H]1CNCCCN1S(=O)(=O)c1cccc2cnccc12 [Compound R-YK1603, (R)-5-((2-methyl-1,4-diazacycloheptan-1-yl)sulfonyl)isoquinoline] was tested, and the “Cerebral hemorrhage volume score (x ± s)” value [1] was 12.06 ± 1.98, the “expression of endothelin in endothelial cells: Detection result of test compound at low dose (0.4 μM)” value (from here on “expression of endothelin … (0.4 μM)”) (endothelin (ET-1)) was 242.75 ± 52.53 pg/mL and the “expression of endothelin in endothelial cells: Detection result of test compound at medium dose (2 μM)” value (“expression of endothelin … (2 μM)” for short) (endothelin (ET-1)) was 252.72 ± 22.83 pg/mL. For the same compound, the “expression of endothelin in endothelial cells: Detection result of test compound at high dose (10 μM)” value (from here on “expression of endothelin … (10 μM)”) (endothelin (ET-1)) was 242.03 ± 1.24 pg/mL, the “expression of prostacyclin in endothelial cells: Detection result of test compound at low dose (0.4 μM)” value (“expression of prostacyclin … (0.4 μM)” for short) (prostacyclin (PGI2)) was 262.30 ± 0.77 pg/mL and the “expression of prostacyclin in endothelial cells: Detection result of test compound at medium dose (2 μM)” value (shortened to “expression of prostacyclin … (2 μM)”) (prostacyclin (PGI2)) was 272.58 ± 4.40 pg/mL. The “expression of prostacyclin in endothelial cells: Detection result of test compound at high dose (10 μM)” value (“expression of prostacyclin … (10 μM)” for short) (prostacyclin (PGI2)) was 243.73 ± 15.66 pg/mL, the “expression of endothelial nitric oxide synthase in endothelial cells: Detection result of test compound at low dose (0.4 μM)” value [2] was 2928.44 ± 257.48 pg/mL and the “expression of endothelial nitric oxide synthase in endothelial cells: Detection result of test compound at medium dose (2 μM)” value [2] was 2385.91 ± 387.57 pg/mL. For the same compound, the “expression of endothelial nitric oxide synthase in endothelial cells: Detection result of test compound at high dose (10 μM)” value [2] was 2245.94 ± 213.65 pg/mL, the “nitric oxide secretion in endothelial cells: Detection result of test compound at low dose (0.4 μM)” value (shortened to “nitric oxide secretion … (0.4 μM)”) (nitric oxide (NO)) was 1.207 ± 0.000 μm and the “nitric oxide secretion in endothelial cells: Detection result of test compound at medium dose (2 μM)” value (“nitric oxide secretion … (2 μM)” below) (nitric oxide (NO)) was 0.743 ± 0.070 μm. The “nitric oxide secretion in endothelial cells: Detection result of test compound at high dose (10 μM)” value (shortened to “nitric oxide secretion … (10 μM)”) (nitric oxide (NO)) was 0.910 ± 0.025 μm.
In the case of C[C@@H]1CNCCCN1S(=O)(=O)c1cccc2c(O)ncc(F)c12 [Compound R-YK1604, (R)-4-fluoro-5-((2-methyl-1,4-diazacycloheptan-1-yl)sulfonyl)isoquinolin-1-ol], the “Cerebral hemorrhage volume score (x ± s)” value [1] is reported as 12.58 ± 1.96, the “expression of endothelin … (0.4 μM)” value (endothelin (ET-1)) is reported as 232.75 ± 42.51 pg/mL and the “expression of endothelin … (2 μM)” value (endothelin (ET-1)) is reported as 242.72 ± 20.81 pg/mL. The “expression of endothelin … (10 μM)” value (endothelin (ET-1)) was 230.03 ± 1.24 pg/mL, the “expression of prostacyclin … (0.4 μM)” value (prostacyclin (PGI2)) was 280.40 ± 9.89 pg/mL and the “expression of prostacyclin … (2 μM)” value (prostacyclin (PGI2)) was 279.35 ± 28.69 pg/mL. The “expression of prostacyclin … (10 μM)” value (prostacyclin (PGI2)) was 251.44 ± 42.48 pg/mL, the “expression of endothelial nitric oxide synthase in endothelial cells: Detection result of test compound at low dose (0.4 μM)” value [2] was 2932.05 ± 435.87 pg/mL and the “expression of endothelial nitric oxide synthase in endothelial cells: Detection result of test compound at medium dose (2 μM)” value [2] was 2397.93 ± 180.08 pg/mL. For the same compound, the “expression of endothelial nitric oxide synthase in endothelial cells: Detection result of test compound at high dose (10 μM)” value [2] was 2229.68 ± 63.98 pg/mL, the “nitric oxide secretion … (0.4 μM)” value (nitric oxide (NO)) was 1.009 ± 0.064 μm and the “nitric oxide secretion … (2 μM)” value (nitric oxide (NO)) was 0.851 ± 0.032 μm. The “nitric oxide secretion … (10 μM)” value (nitric oxide (NO)) was 0.829 ± 0.064 μm.
In the case of COc1ncc(F)c2c(S(=O)(=O)N3CCCNC[C@H]3C)cccc12 [Compound R-YK1605, (R)-4-fluoro-1-methoxy-5-((2-methyl-1,4-diazacycloheptan-1-yl)sulfonyl)isoquinoline], the “Cerebral hemorrhage volume score (x ± s)” value [1] is reported as 12.95 ± 2.04, the “expression of endothelin … (0.4 μM)” value (endothelin (ET-1)) is reported as 231.61 ± 9.70 pg/mL and the “expression of endothelin … (2 μM)” value (endothelin (ET-1)) is reported as 228.98 ± 11.41 pg/mL. The “expression of endothelin … (10 μM)” value (endothelin (ET-1)) was 259.53 ± 0.75 pg/mL, the “expression of prostacyclin … (0.4 μM)” value (prostacyclin (PGI2)) was 280.07 ± 7.00 pg/mL and the “expression of prostacyclin … (2 μM)” value (prostacyclin (PGI2)) was 274.72 ± 32.60 pg/mL. For the same compound, the “expression of prostacyclin … (10 μM)” value (prostacyclin (PGI2)) was 246.51 ± 1.44 pg/mL, the “expression of endothelial nitric oxide synthase in endothelial cells: Detection result of test compound at low dose (0.4 μM)” value [2] was 2752.53 ± 779.12 pg/mL and the “expression of endothelial nitric oxide synthase in endothelial cells: Detection result of test compound at medium dose (2 μM)” value [2] was 2261.58 ± 253.77 pg/mL. For the same compound, the “expression of endothelial nitric oxide synthase in endothelial cells: Detection result of test compound at high dose (10 μM)” value [2] was 2105.70 ± 87.14 pg/mL, the “nitric oxide secretion … (0.4 μM)” value (nitric oxide (NO)) was 0.950 ± 0.134 μm and the “nitric oxide secretion … (2 μM)” value (nitric oxide (NO)) was 1.023 ± 0.006 μm. The “nitric oxide secretion … (10 μM)” value (nitric oxide (NO)) was 1.122 ± 0.006 μm.
For C[C@@H]1CNCCCN1S(=O)(=O)c1cccc2c(O)ncc(Cl)c12 [Compound R-YK1606, (R)-4-chloro-5-((2-methyl-1,4-diazacycloheptan-1-yl)sulfonyl)isoquinolin-1-ol], the “Cerebral hemorrhage volume score (x ± s)” value [1] was 12.69 ± 2.01, the “expression of endothelin … (0.4 μM)” value (endothelin (ET-1)) was 231.75 ± 32.51 pg/mL and the “expression of endothelin … (2 μM)” value (endothelin (ET-1)) was 242.62 ± 19.81 pg/mL. For the same compound, the “expression of endothelin … (10 μM)” value (endothelin (ET-1)) was 231.03 ± 1.24 pg/mL, the “expression of prostacyclin … (0.4 μM)” value (prostacyclin (PGI2)) was 292.24 ± 2.59 pg/mL and the “expression of prostacyclin … (2 μM)” value (prostacyclin (PGI2)) was 278.32 ± 46.42 pg/mL. For the same compound, the “expression of prostacyclin … (10 μM)” value (prostacyclin (PGI2)) was 258.58 ± 7.57 pg/mL, the “expression of endothelial nitric oxide synthase in endothelial cells: Detection result of test compound at low dose (0.4 μM)” value [2] was 2974.79 ± 361.75 pg/mL and the “expression of endothelial nitric oxide synthase in endothelial cells: Detection result of test compound at medium dose (2 μM)” value [2] was 2400.67 ± 226.73 pg/mL. The “expression of endothelial nitric oxide synthase in endothelial cells: Detection result of test compound at high dose (10 μM)” value [2] was 2286.01 ± 95.04 pg/mL, the “nitric oxide secretion … (0.4 μM)” value (nitric oxide (NO)) was 1.131 ± 0.019 μm and the “nitric oxide secretion … (2 μM)” value (nitric oxide (NO)) was 1.009 ± 0.102 μm. The “nitric oxide secretion … (10 μM)” value (nitric oxide (NO)) was 1.158 ± 0.223 μm.

Source: patent US12264146B2, “Rho kinase inhibitor, method for preparing same and uses thereof” (BEIJING INCREASE INNOVATIVE DRUG CO., LTD., priority 2018, dated 2025)
